Reference: US20250352615A1, “COMPOSITIONS AND METHODS FOR THE MODULATION OF PIEZO1 AND TRPV4” (Duke University, priority 2021, published 2025)

Key:
[1] = test system: mouse PSCs; experiment: Mouse PSC activation and fibrogenic response; format: cell-based; settings: Yoda1 25 μM
Procedure: Mouse and human PSCs were isolated using collagenase digestion. Modified Krebs Henseleit Buffer (KHB) solution (100 mL) was prepared as previously described by Romac et al., Nat. Commun. 9(1):1715 (2018). Pancreatic tissue was digested with 2 mg of collagenase NB 8 (SERVA, catalog 17456) dissolved in 10 mL of modified KHB solution containing 1 mg soybean trypsin inhibitor (SBTI 1-S; Millipore Sigma, catalog T9003) and 20 mg BSA (Thermo Fisher Scientific; BP1600-100). Digestion solution (5 mL) was used to inflate the pancreas. Pancreas with 5 mL of digestion solution was incubated in a shaking water bath for 10 minutes at 37° C. The solution was then discarded. The pancreas tissue was cut into small pieces and digested with fresh 5 mL digestion buffer. Tissue was incubated in a shaking water bath for 40 minutes at 37° C. The cells were then separated from tissue by pipetting up-down with a 10 mL pipette and passed sequentially through a 70 μm and a 40 μm cell strainer. The filtrate was centrifuged at 150×g for 3 minutes at room temperature. The cells were washed with 10 mL Leibovitz's media (Thermo Fisher Scientific, catalog 11415-064), passed through a 20 μm filter, and centrifuged at 80×g for 3 minutes at room temperature. The supernate was removed, and isolated stellate cells were plated on a thin-layered Matrigel-coated glass bottom culture plate (MatTek, P35G-0-14-C). Before plating the cells, Matrigel solution (Corning, catalog 354234) at a ratio of 1.5:100 DMEM/F12 (Thermo Fisher Scientific, catalog 11330-032) was poured onto the culture plate and incubated for 2 hr at 37° C. to form a thin layer of Matrigel coating. Matrigel mixture was removed, and the plate was washed with PBS before cells were plated. Cell culture media, DMEM/F12 with 5% FBS was used for mouse stellate cells. Fresh, human pancreatic tissue was digested with collagenase as described above with modifications. […] The cell viability following Yoda1 treatment was analyzed using the Live/Dead cell imaging kit (Thermo Fisher Scientific, catalog R37601). […]

[2] = test system: Yes-associated protein (YAP); experiment: YAP nuclear localization in mouse stellate cells (immunostaining); format: cell-based; settings: Yoda1 25 μM for 4 hr
Procedure: Murine stellate cells from wild type or Piezo1^GFAPKO mice were activated with 25 μM Yoda 1 for 4 hours before fixation. Immunostaining staining was performed as described in Swain et al. JCI Insight 7:e158288 (2022). Yap antibody was diluted at 1/100.

Clc1cccc(Cl)c1CSc1nnc(-c2cnccn2)s1 [Yoda1]
activation of PSCs from TRPV4-KO mice (cell shape, perinuclear fat droplets, ECM protein expression) [1]: did not activate PSCs from TRPV4-KO mice | effects of Yoda1 on fibrosis in Piezo1-deleted PSCs ([1]; Piezo1GFAP-KO PSCs): prevented in Piezo1-deleted PSCs | PSC activation phenotype ([1]; WT mouse PSCs): converted mouse PSCs to an activated phenotype with reduced perinuclear fat droplets, changes in cell shape, and increased fibronectin and collagen type I | YAP nuclear localization in stellate cells from Piezo1GFAP-KO mice [2]: No changes were observed | YAP nuclear localization ([2]; wild-type stellate cells, preliminary): increases YAP nuclear localization
